Experimental data taken from patent US20060205755A1, “Novel farnesyl protein transferase inhibitors as antitumor agents” (Schering Corporation, priority 2004, published 2006).

What was measured:
[1] = tested on: Human tumor cells; assay: Soft Agar Assay (anchorage-independent growth, colony count); format: cell-based; settings: colony outgrowth 10-16 days at 37° C.
Experimental: Anchorage-independent growth is a characteristic of tumorigenic cell lines. Human tumor cells can be suspended in growth medium containing 0.3% agarose and an indicated concentration of a farnesyl transferase inhibitor. The solution can be overlayed onto growth medium solidified with 0.6% agarose containing the same concentration of farnesyl transferase inhibitor as the top layer. After the top layer is solidified, plates can be incubated for 10-16 days at 37° C. under 5% CO2 to allow colony outgrowth. After incubation, the colonies can be stained by overlaying the agar with a solution of MTT (3-[4,5-dimethyl-thiazol-2-yl]-2,5-diphenyltetrazolium bromide, Thiazolyl blue) (1 mg/mL in PBS). Colonies can be counted and the IC50's can be determined.

[2] = molecular target: purified human farnesyl protein transferase (Homo sapiens, UniProt P49354+P49356); assay: FPT activity: transfer of [3H] farnesyl from [3H] farnesyl pyrophosphate to biotinylated H-ras peptide (SPA); format: biochemical; settings: 0.03 nM enzyme, 37° C., 60 minutes
Experimental: FPT activity was determined by measuring the transfer of [^3H] farnesyl from [^3H] farnesyl pyrophosphate to a biotinylated peptide derived from the C-terminus of H-ras (biotin-CVLS). The reaction mixture contains: 50 mM Tris pH7.7, 5 mM MgCl2, 5 μM Zn^++, 5 mM DTT, 0.1% Triton-X, 0.05 μM peptide, 0.03 nM purified human farnesyl protein transferase, 0.180 μM [^3H] farnesyl pyrophosphate, plus the indicated concentration of tricyclic compound or vehicle control in a total volume of 100 μl. The reaction was incubated in a Vortemp shaking incubator at 37° C., 45 RPM for 60 minutes and stopped with 150 μl of 0.25 M EDTA containing 0.5% BSA and 1.3 mg/ml Streptavidin SPA beads. Radioactivity was measured in a Wallach 1450 Microbeta liquid scintillation counter. Percent inhibition was calculated relative to the vehicle control.

Structure (SMILES) | IC50 [1] | IC50 [2]
Cn1cncc1C(NC(=O)OC1(C)CC1)C1=Cc2cccnc2C(C2CCN(C(=O)OC3(C)CC3)CC2)c2ccc(Cl)cc21 (single isomer, unassigned) [Example 4] | ≥ 9 nM | 
Cn1cncc1C(NC(=O)OC1(C)CC1)C1=Cc2cccnc2C(=C2CCN(C(=O)OC(C)(C)C)CC2)c2ccc(Cl)cc21 (centres unmarked) [Example 1] | ≥ 9 nM | 
Cn1cncc1C(NC(=O)OC1(C)CC1)C1=Cc2cccnc2C(=C2CCN(C(=O)OC3(C)CC3)CC2)c2ccc(Cl)cc21 (centres unmarked) [Example 2] |  | 0.9 nM
Cn1cncc1C(NC(=O)OC1(C)CC1)C1=Cc2cccnc2C(O)(C2CCN(C(=O)OC(C)(C)C)CC2)c2ccc(Cl)cc21 (centres unmarked) [Example 5] | ≥ 9 nM | 
Cn1cncc1C(NC(=O)OC1(C)CC1)C1=Cc2cccnc2C(O)(C2CCN(C(=O)OC3(C)CC3)CC2)c2ccc(Cl)cc21 (centres unmarked) [Example 6] | ≥ 9 nM | 
